Where two headings read alike, the source gives them in different places.
Key:
[1] = system: patients with central autonomic failure; conditions: Ramirez et al. 2014, Shibao et al. 2007; cited from earlier work
[2] = system: patients with symptomatic neurogenic orthostatic hypotension; assay: Treatment of patients having nOH (Example 1); format: in vivo, human; conditions: 5 mg oral tablets twice daily, follow-up after one week
Procedure: Patients between the age of 40 and 80 years old that have been diagnosed with symptomatic orthostatic hypotension due to pure autonomic failure, multiple system atrophy or Parkinson's disease (i.e., PD plus symptoms) present for treatment. At the time of presentation, autonomic function testing is conducted to confirm the diagnosis of autonomic dysfunction including sinus arrhythmia and the Valsalva maneuver.
The patients are given 5 mg dabuzalgron oral tablets and are instructed to take one tablet shortly after waking up in the morning and a second tablet 4-6 hours later each day.
Some patients return for a follow-up visit after one week of treatment. […] In the follow-up visit supine systolic blood pressure (SSBP) may be determined.

[3] = molecular target: T1, α1A-AR receptor (Homo sapiens, UniProt P35348); conditions: FLIPR assay; Blue et al., Table 1; cited from earlier work
T1 sequence (P35348 1-466): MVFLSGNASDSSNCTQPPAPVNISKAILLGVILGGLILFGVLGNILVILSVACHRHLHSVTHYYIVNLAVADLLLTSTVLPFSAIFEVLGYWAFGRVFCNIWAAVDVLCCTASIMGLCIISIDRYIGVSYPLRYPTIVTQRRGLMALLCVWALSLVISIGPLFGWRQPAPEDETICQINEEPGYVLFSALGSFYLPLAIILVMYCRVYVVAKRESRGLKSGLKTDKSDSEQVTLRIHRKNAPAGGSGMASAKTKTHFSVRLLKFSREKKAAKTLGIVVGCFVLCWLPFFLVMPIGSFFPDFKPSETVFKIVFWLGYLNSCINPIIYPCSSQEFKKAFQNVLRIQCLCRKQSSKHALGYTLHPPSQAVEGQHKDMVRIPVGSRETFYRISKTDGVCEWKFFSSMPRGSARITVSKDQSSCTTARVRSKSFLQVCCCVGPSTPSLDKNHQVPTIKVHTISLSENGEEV

[4] = molecular target: T1, α1A-AR receptor; conditions: InsPs accumulation assay; Blue et al., Table 1; cited from earlier work

Question: With `CNCC[C@@H](Oc1ccccc1C)c1ccccc1` [Atomoxetine] as the molecule, how does the “effect on blood pressure” value [1] read?
Answer: increase blood pressure

Question: Which results are given for `Cc1c(OCC2=NCCN2)ccc(Cl)c1NS(C)(=O)=O` [dabulzagron, N-[6-chloro-3-(4,5-dihydro-1H-imidazol-2-ylmethoxy)-2-methylphenyl] methanesulfonamide]?
Answer: rise in SSBP compared with patients taking midodrine or droxidopa for nOH [2]: less that that observed in patients taking midodrine or droxidopa; rise in supine systolic blood pressure (SSBP) [2]: not experience a substantial rise in SSBP; symptoms of nOH as compared to the first visit before treatment [2]: improve

Question: Which “intrinsic activity as compared to noradrenaline” value [3] does the source give for `Cc1c(OCC2=NCCN2)ccc(Cl)c1NS(C)(=O)=O.Cl` [RO 115-1240 (dabuzalgron) HCl salt, N-[6-chloro-3-(4,5-dihydro-1H-imidazol-2-ylmethoxy)-2-methylphenyl] methanesulfonamide hydrochloride] here?
Answer: 0.51

Question: And the “intrinsic activity as compared to noradrenaline” value [4]?
Answer: 0.27

Question: Which “intrinsic activity as compared to noradrenaline” value [4] does the source give for `Cc1c(OCC2=NCCN2)ccc(Cl)c1NS(C)(=O)=O` [RO 115-1240 (dabuzalgron) free base, N-[6-chloro-3-(4,5-dihydro-1H-imidazol-2-ylmethoxy)-2-methylphenyl] methanesulfonamide] here?
Answer: 0.31

— patent US11590107B2, “Methods for treating neurological disorders with α1A-AR partial agonists” (CURASEN THERAPEUTICS, INC., priority 2019, dated 2023)
